Results reported in US20260174780A1, “BISMUTH-THIOL COMPOSITIONS AND METHODS FOR TREATING INFLAMMATORY DISEASES” (Microbion Corporation, priority 2022, published 2026).
Entries after “also recorded” stand apart in the source; their conditions may differ.

Columns and labels:
[1] = tested on: NLRP3 inflammasome; experiment: RT-qPCR of NLRP3 inflammasome expression in THP-1 macrophages, uninfected or infected; assay type: cell-based
Description: THP-1 macrophages were differentiated with 50 ng/ml PMA for 24 hours, followed by 24 hours in media prior to infection. Differentiated THP-1 macrophages were infected with M. avium or M. abscessus for 1 hour with an MOI of 5. Infected cells were washed twice, followed by 1 hour of antibiotic treatment with 200 μg/ml of amikacin to remove extracellular bacteria. […] The treatments (see Table 2) included: (1) uninfected, (2) uninfected+range of BisEDT, (3) untreated+infected with M. avium, (4) M. avium infected+BIZ, (5) untreated+M. abscessus, and (6) M. abscessus infected+BIZ. The time points for sample preparation were 48 hours post infection. CFUs were determined as described above and RNA was collected from similar experiments.
THP-1 RNA from the cells was isolated using the Rneasy mini kit (Qiagen), followed by treatment with Dnase 1 recombinant (Roche Diagnostics) for 1 hour at 37° C. to remove contaminating genomic DNA. The DNase was inactivated with Turbo DNase-inactivation reagent (Turbo DNA-free kit, Thermo Fisher Scientific) for 2 min at 37° C. Inactivation reagent was removed via centrifugation for 1 min at 10,000×g, and RNA transferred to new collection tubes. RNA samples were stored at […] for future processing. cDNA was transcribed from host RNA using the iScript cDNA synthesis kit (Bio-Rad). The quality of cDNA was tested by PCR with Gold 360 master mix using the manufacturer's specifications (Thermo Fisher Scientific). The RT-qPCR reaction was performed using iQ SYBR Green Supermix (Bio-Rad) and an iCycler (CFX Connect Real-Time Systems, Bio-Rad) as previously described (1). Standard curves for each gene were run in each reaction and used to calculate absolute values of mRNA. Gene expression data are presented as relative expression to beta-actin. Primers (Table 3) were designed in Primer3 using sequences from GenBank (National Center for Biotechnology Information).

[2] = tested on: M. abscessus clinical strains; experiment: Activity in the macrophage system against M. abscessus clinical strains; assay type: cell-based; conditions: all three clinical strains tested
[3] = tested on: cytokines in bronchoalveolar lavage fluid (BALF); experiment: Cytokines in BALF of rats after a single inhaled dose of BisEDT; assay type: in vivo, Sprague-Dawley rats; conditions: day 8 compared to day 2; single low (1 mg/kg) or high (7 mg/kg) inhaled dose
Description: Two concentrations (low: 1 mg/kg; high: 7 mg/kg) of BisEDT were evaluated by inhalation in rats.
Bronchoalveolar lavage fluid (BALF) samples from day 2 (D2) and day 8 (D8) post treatment were analyzed for the expression of cytokines.
Protocol: Sprague-Dawley rats were randomly assigned to a study group based on body weight. Adult, male Sprague-Dawley rats (n=6 per group) were exposed to the aerosolized test article (TA) with a single dose on Study Day 1. Groups 1, 2, and 3 were exposed by inhalation to 1 mg/kg (targeted presented dose) of BisEDT sample 1, BisEDT sample 2, or BisEDT sample 3, respectively. Groups 4, 5, and 6 were exposed by inhalation to 7 mg/kg (targeted presented dose) of BisEDT sample 1, BisEDT sample 2, or BisEDT sample 3, respectively. Animals were necropsied on Study Days 2, 4, and 8, and terminal blood collections were conducted at that time.
Blood Processing: All blood samples were placed into a tube containing K3EDTA, and mixed thoroughly. Following mixing, blood obtained at the time of euthanasia was divided in half. Half of the blood sample was stored frozen without further processing pending bioanalysis. The remaining half was placed on wet ice before being processed to plasma by centrifugation at 2500×g for ≥10 minutes at 2 to 8° C. Plasma was aliquoted into a cryovial(s), snap frozen in liquid nitrogen, and stored at −80° C.±10° C. until cytokine analysis was performed using ELISA kits following manufacturer's instructions.

[4] = tested on: BEAS-2B cells; experiment: Cytokine ELISA in BEAS-2B cells; assay type: cell-based, human; conditions: 0.5, 1, 2 or 4 μg/mL, 24 hours, compared to untreated cells
Description: (§1) Protocol: BEAS-2B cells were grown in tissue culture flasks and a 24-well plate was seeded with 2×10^5 cells/well and incubated at 37° C. and 5% CO2 for 48 hours. Select wells were treated with either 4 μg/mL, 2 μg/mL, 1 μg/mL, or 0.5 μg/mL BisEDT or left untreated as a control and incubated at 37° C. and 5% CO2 for 24 hours. Cell culture supernatant was collected from each well and stored at −20° C. until further ELISA analysis. On the day of the ELISA assays to determine the expression of each cytokine, cell culture supernatant was thawed, and the assays performed following the manufacturer's instructions. Cells were collected for RNA isolation using Qiagen RNeasy kit using manufacturers' instructions. Briefly, genomic DNA was degraded with DNase (Roche) and samples were incubated at 37° C. for 1 hour followed by 3 μL DNase inactivation reagent (Invitrogen) incubated at 37° C. for 2 minutes. Samples were centrifuged at maximum speed for 5 minutes to remove the inactivation reagent. RNA concentration and quality was evaluated using a Nanodrop. RNA samples were utilized to generate cDNA using cDNA synthesis kit (Bio-Rad). qPCR for AIM2 and actin (housekeeping gene) was conducted using SYBR green kit (Bio-Rad) along with standards.

[5] = tested on: AIM2 inflammasome; experiment: qPCR of AIM2 in HUVEC cells; assay type: cell-based, human; conditions: HUVEC cells, 0.5, 1, 2 or 4 μg/mL, 24 hours, compared to untreated cells
Description: as §1, with “HUVEC” for “BEAS-2B”, “manufacturer's” for “manufacturers'”, “standard.” for “standards.”

## C1C[S][Bi]([S]CC[S][Bi]2[S]CC[S]2)[S]1 [BisEDT, 1,2-(Bis(1,3-dithia-2-bismolane)thio)ethane]
[1]; BisEDT used after the infections
  inhibitory effect on NLRP3 expression: the inhibitory effect was not observed
[1]; M. abscessus (MAB 19977) infected cells pretreated with 0.5 μg/ml
  NLRP3 expression: reduced NLRP3 expression
[1]; M. abscessus infected cells
  NLRP3 expression: remained unchanged
[1]; M. avium (MAH 104) infected cells pre-treated with 2 μg/ml, vs M. avium only infected cells
  NLRP3 expression: higher NLRP3 expression
[1]; MAH 104 infection, 4 μg/ml treatment, vs MAH 104 infected cells
  NLRP3 expression: reduced NLRP3 expression
[1]; NTM-infected macrophages
  NLRP3 inhibition: even greater dose-related NLRP3 inhibition
[1]; pre-treatment with 1 μg/ml prior to MAB 19977 infection
  NLRP3 expression: did not impact NLRP3 expression
[1]; uninfected THP-1 cells
  NLRP3 inflammasome expression relative to beta-actin: dose-related inhibitory effect; also recorded: inhibits AIM2 and NLRP3 inflammasome expression
[2]
  activity against M. abscessus in the macrophage system: very active (bactericidal)
[3]
  expression of IL-1β in BALF: Consistent reduction
  expression of IL-17A in BALF: Consistent reduction
  expression of TNF-α in BALF: Consistent reduction
[4]
  expression of IL-1β: Consistent reduction
  expression of IL-10: consistent increase
  expression of TNF-α: Consistent reduction
[5]
  AIM2 inflammasome expression (AIM2/Actin copy number): inhibit AIM2 inflammasome expression
